Measured values from patent US20100119479A1, “THERAPEUTIC ANTIVIRAL PEPTIDES” (INTERMUNE, INC., priority 2008, published 2010).

Tests used:
[1] = test system: HCV sub-genomic replicon, GS4.3 (HuH-7 hepatoma cells); test: Quantitation by ELISA of NPTII in the HCV sub-genomic replicon, GS4.3; format: cell-based; settings: Hepatitis C virus, GS4.3 replicon cells, 72 h incubation
From the text: Quantitation by ELISA of the Selectable Marker Protein, Neomycin Phosphotransferase II (NPTII) in the HCV Sub-Genomic Replicon, GS4.3
The HCV sub-genomic replicon (1377/NS3-3′, accession No. AJ242652), stably maintained in HuH-7 hepatoma cells, was created by Lohmann et al. Science 285: 110-113 (1999). The replicon-containing cell culture, designated GS4.3, was obtained from Dr. Christoph Seeger of the Institute for Cancer Research, Fox Chase Cancer Center, Philadelphia, Pa.
GS4.3 cells were maintained at 37° C., 5% CO2, in DMEM (Gibco 11965-092) supplemented with L-glutamine 200 mM (100×) (Gibco25030-081), non-essential amino acids (NEAA)(Biowhittaker 13-114E), heat-inactivated (HI) Fetal Bovine Serum(FBS)(Hyclone SH3007.03) and 750 μg/mL geneticin (G418)(Gibco 10131-035). Cells were sub-divided 1:3 or 4 every 2-3 days.
24 h prior to the assay, GS4.3 cells were collected, counted, and plated in 96-well plates (Costar 3585) at 7500 cells/well in […] standard maintenance medium (above) and incubated in the conditions above. To initiate the assay, culture medium was removed, cells were washed once with PBS (Gibco 10010-023) and 90 μl Assay Medium (DMEM, L-glutamine, NEAA, 10% HI FBS, no G418) was added. Inhibitors were made as a 10× stock in Assay Medium, (3-fold dilutions from 10 μM to […] final concentration, final DMSO concentration 1%), […] were added to duplicate wells, plates were rocked to mix, and incubated as above for 72 h.
An NPTII Elisa kit was obtained from AGDIA, Inc. (Compound direct ELISA test system for Neomycin Phosphotransferase II, PSP 73000/4800). Manufacturer's instructions were followed, with some modifications. 10×PEB-1 lysis buffer was made up to include 500 μM PMSF (Sigma P7626, 50 mM stock in isopropanol). After 72 h incubation, cells were washed once with PBS and […] PEB-1 with PMSF was added per well. Plates were agitated vigorously for 15 minutes, room temperature, then frozen at −70° C. Plates were thawed, lysates were mixed thoroughly, and 100 μl were applied to an NPTII Elisa plate. A standard curve was made. Lysate from DMSO-treated control cells was pooled, serially diluted with PEB-1 with PMSF, and applied to duplicate wells of the ELISA plate, in a range of initial lysate amount of 150 μL-2.5 μL. In addition, 100 μL buffer alone was applied in duplicate as a blank. Plates were sealed and gently agitated at room temperature for 2 h. Following capture incubation, the plates were washed 5×300 μL with PBS-T (0.5% Tween-20, PBS-T was supplied in the ELISA kit). For detection, a 1× dilution of enzyme conjugate diluent MRS-2 (5×) was made in PBS-T, into which 1:100 dilutions of enzyme conjugates A and B were added, as per instructions. Plates were resealed, and incubated with agitation, covered, room temperature, for 2 h. The washing was then repeated and 100 μL, of room temperature TMB substrate was added. After approximately 30 minutes incubation (room temperature, agitation, covered), the reaction was stopped with 50 μL, 3M sulfuric acid. Plates were read at 450 nm on a Molecular Devices Versamax plate reader.
Inhibitor effect was expressed as a percentage of DMSO-treated control signal, and inhibition curves were calculated using a 4-parameter equation: y=A+((B−A)/(1+((C/x)̂D))), where C is half-maximal activity or EC50.

[2] = biological target: T1, full-length NS3/NS4A-2 (HCV NS3 protease) (Hepatitis C virus genotype 1b, UniProt Q9WMX2); test: NS3 Inhibition Assay (NS3-NS4 protease assay, RETS1 substrate); format: biochemical; settings: NS3/NS4A-2 protease
T1 construct: Recombinant E. coli or Baculovirus full-length NS3; host or cells: E. coli or baculovirus (BV) expression
T1 sequence (Q9WMX2 1027-1657): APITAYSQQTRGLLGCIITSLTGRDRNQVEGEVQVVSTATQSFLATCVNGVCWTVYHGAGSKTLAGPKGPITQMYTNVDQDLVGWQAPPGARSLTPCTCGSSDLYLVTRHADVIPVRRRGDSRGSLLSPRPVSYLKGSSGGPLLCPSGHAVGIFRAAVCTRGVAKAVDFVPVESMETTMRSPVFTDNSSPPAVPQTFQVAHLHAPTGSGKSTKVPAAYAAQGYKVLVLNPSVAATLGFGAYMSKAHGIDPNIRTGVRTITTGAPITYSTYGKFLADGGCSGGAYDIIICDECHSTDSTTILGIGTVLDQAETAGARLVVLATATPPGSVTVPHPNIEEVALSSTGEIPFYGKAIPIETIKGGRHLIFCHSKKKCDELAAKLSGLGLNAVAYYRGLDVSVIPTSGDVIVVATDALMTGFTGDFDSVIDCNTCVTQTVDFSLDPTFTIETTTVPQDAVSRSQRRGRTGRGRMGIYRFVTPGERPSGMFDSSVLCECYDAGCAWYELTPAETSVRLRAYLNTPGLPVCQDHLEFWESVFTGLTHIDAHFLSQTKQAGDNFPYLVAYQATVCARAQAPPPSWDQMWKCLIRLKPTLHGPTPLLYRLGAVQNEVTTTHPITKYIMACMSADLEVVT
T1 sequence (Q9WMX2 1658-1711): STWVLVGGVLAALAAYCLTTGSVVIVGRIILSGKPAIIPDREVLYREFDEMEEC
Experimental: NS3 Complex Formation with NS4A-2.
Recombinant E. coli or Baculovirus full-length NS3 was diluted to 3.33 μM with assay buffer and transferred material to an eppendorf tube and placed in a water bath in a 4° C. refrigerator. The appropriate amount of NS4A-2 diluted to […] in assay buffer was added to equal the volume of NS3 above (conversion factor—3.8 mg/272 μL assay buffer). The material was transferred to an eppendorf tube and placed in water bath in a 4° C. refrigerator.
After equilibration to 4° C., equal volumes of NS3 and NS4A-2 solutions were combined in an eppendorf tube, mix gently with a manual pipettor, and incubate mixture for 15 minutes in the 4° C. water bath. Final concentrations in the mixture are 1.67 μM NS3, 4.15 mM NS4A-2 (2485-fold molar excess NS4A-2).
After 15 minutes at 4° C., the NS3/NS4A-2 eppendorf tube was removed and place it in a room temperature water bath for 10 minutes. NS3/NS4A-2 was aliquoted at appropriate volumes and store at −80° C. (E. coli NS3 run at 2 nM in assay, aliquot at 25 μL. BV NS3 run at 3 nM in assay, aliquot at 30 μL).
Step a. Sample compounds were dissolved to 10 mM in DMSO then diluted to 2.5 mM (1:4) in DMSO. Typically, compounds were added to an assay plate at 2.5 mM concentration, yielding upon dilution a starting concentration of 50 microM in the assay inhibition curve. Compounds were serial diluted in assay buffer to provide test solutions at lower concentrations.
Step b. The E. coli. NS3/NS4A-2 was diluted to 4 nM NS3 (1:417.5 of 1.67 μM stock−18 μL1.67 μM stock+7497 μL assay buffer). The BV NS3/NS4A-2 was diluted to 6 nM NS3 (1:278.3 of 1.67 μM stock−24 μL1.67 μM stock+6655 μL assay buffer).
Step c. Using the manual multichannel pipettor, and being careful not to introduce bubbles into the plate, 50 μL assay buffer were added to wells A01-H01 of a black Costar 96-well polypropylene storage plate.
Step d. Using the manual multichannel pipettor, and being careful not to introduce bubbles into the plate, 50 μL of diluted NS3/NS4A-2 from Step b were added to wells A02-H12 of the plate in Step c.
Step e. Using the manual multichannel pipettor, and being careful not to introduce bubbles into the plate, 25 μL of the wells in drug dilution plate in Step a were transferred to corresponding wells in assay plate in Step d. The tips on the multichannel pipettor were changed for each row of compounds transferred.
Step f Using the manual multichannel pipettor, and being careful not to introduce bubbles into the plate, the contentes of the wells from the assay plate in Step e were mixed by aspirating and dispensing 35 μL of the 75 μL in each well five times. The tips on multichannel pipettor were changed for each row of wells mixed.
Step g. The plate was covered with a polystyrene plate lid, and the plate from Step f containing NS3 protease and sample compounds was pre-incubated 10 minutes at room temperature.
While plate from Step g is pre-incubating, the RETS1 substrate was diluted in a 15 mL polypropylene centrifuge tube. The RETS1 substrate was diluted to 8 μM (1:80.75 of 646 μM stock—65 μL 646 μM stock+5184 μL assay buffer).
After the plate in Step g was done pre-incubating, and using the manual multichannel, 25 μL of substrate were added to all wells on the plate. The contents of the wells of the plate were quickly mixed, as in Step f, mixing 65 μL of the 100 μL in the wells.
The plate was read in kinetic mode on the Molecular Devices SpectraMax Gemini XS plate reader. Reader settings: Read time: 30 minutes, Interval: 36 seconds, Reads: 51, Excitation λ: 335 nm, Emission λ: 495 nm, cutoff: 475 nm, Automix: off, Calibrate: once, PMT: high, Reads/well: 6, Vmax pts: 21 or 28/51 depending on length of linearity of reaction
IC50s are determined using a four parameter curve fit equation, and converted to Ki's using the following Km's: […]
Full-length E. coli NS3−2.03 μM
Full-length BV NS3−1.74 μM
where Ki=IC50/(1+[S]/Km))

SMILES | EC50 [1] | IC50 [2]
C=C[C@@H]1C[C@]1(NC(=O)[C@@H]1C[C@@H](Oc2cc(-c3nc(C(C)C)cs3)nc3c(C)c(OC)ccc23)CN1C(=O)[C@@H](Nc1ccc(F)c(C(F)(F)F)c1)C(C)(C)C)C(=O)NS(=O)(=O)C1(C)CC1 [Compound 305] | < 100 nM | < 100 nM
C=C[C@@H]1C[C@]1(NC(=O)[C@@H]1Cc2cc(Oc3cccc(Cl)c3)ccc2CN1C(=O)[C@@H](Nc1cccc(C(F)(F)F)c1)C(C)(C)C)C(=O)NS(=O)(=O)C1CC1 [Compound 23] | > 1000 nM | < 100 nM
C=C[C@@H]1C[C@]1(NC(=O)[C@@H]1C[C@@H](Oc2cc(-c3nc(C(C)C)cs3)nc3c(C)c(OC)ccc23)CN1C(=O)[C@@H](Nc1cc(C)cc(C(F)(F)F)c1)C(C)(C)C)C(=O)NS(=O)(=O)C1(C)CC1 [Compound 402] | < 100 nM | < 100 nM
C=C[C@@H]1C[C@]1(NC(=O)[C@H]1Cc2cc(Oc3cccc(Cl)c3)ccc2CN1C(=O)[C@@H](Nc1cccc(C(F)(F)F)c1)C(C)(C)C)C(=O)NS(=O)(=O)C1(C)CC1 [Compound 22] | > 1000 nM | < 100 nM
CC[C@@H]1C[C@]1(NC(=O)[C@@H]1C[C@@H](OC(=O)N2Cc3cccc(F)c3C2)CN1C(=O)[C@@H](Nc1ccc(C(=O)N2CCOCC2)cc1)C(C)(C)C)C(=O)NS(=O)(=O)C1CC1 [Compound 11] | > 1000 nM | < 100 nM
CC[C@@H]1C[C@]1(NC(=O)[C@@H]1C[C@@H](Oc2cc(-c3nc(C(C)C)cs3)nc3c(C)c(OC)ccc23)CN1C(=O)[C@@H](Nc1ccc(C(F)(F)F)cc1)C(C)(C)C)C(=O)NS(=O)(=O)C1(C)CC1 [Compound 299] | < 100 nM | < 100 nM
CC[C@@H]1C[C@]1(NC(=O)[C@@H]1C[C@@H](Oc2cc(-c3nc(C(C)C)cs3)nc3c(C)c(OC)ccc23)CN1C(=O)[C@@H](Nc1ccccc1)C(C)(C)C)C(=O)NS(=O)(=O)C1CC1 [Compound 352] | < 100 nM | < 100 nM
CC[C@@H]1C[C@]1(NC(=O)[C@@H]1C[C@@H](OC(=O)N2Cc3ccc(NC(=O)CN4CCOCC4)cc3C2)CN1C(=O)[C@@H](Nc1cc(F)cc(C(F)(F)F)c1)C(C)(C)C)C(=O)NS(=O)(=O)C1CC1 [Compound 20] | < 100 nM | < 100 nM
C=C[C@@H]1C[C@]1(NC(=O)[C@@H]1C[C@@H](Oc2cc(-c3nc(C(C)C)cs3)nc3c(C)c(OC)ccc23)CN1C(=O)[C@@H](Nc1ccc(F)c(C(F)(F)F)c1)C(C)(C)C)C(=O)NS(=O)(=O)C1CC1 [Compound 306] | < 100 nM | < 100 nM
C=C[C@@H]1C[C@]1(NC(=O)[C@@H]1C[C@@H](Oc2cc(-c3ccccc3)nc3cc(OC)ccc23)CN1C(=O)[C@@H](Nc1cc(F)cc(C(F)(F)F)c1)C(C)(C)C)C(=O)NS(=O)(=O)C1(C)CC1 [Compound 281] | < 100 nM | < 100 nM
C=C[C@@H]1C[C@]1(NC(=O)[C@@H]1C[C@@H](Oc2nccc3ccccc23)CN1C(=O)[C@@H](Nc1ccc(F)c(C(F)(F)F)c1)C(C)(C)C)C(=O)NS(=O)(=O)C1CC1 [Compound 6] | < 100 nM | < 100 nM
CC[C@@H]1C[C@]1(NC(=O)[C@@H]1C[C@@H](Oc2cc(-c3nc(C(C)C)cs3)nc3c(C)c(OC)ccc23)CN1C(=O)[C@@H](Nc1ccc(F)c(C(F)(F)F)c1)C(C)(C)C)C(=O)NS(=O)(=O)N(C)C [Compound 309] | < 100 nM | < 100 nM
CC[C@@H]1C[C@]1(NC(=O)[C@@H]1C[C@@H](Oc2cc(-c3nc(C(C)C)cs3)nc3c(C)c(OC)ccc23)CN1C(=O)[C@@H](Nc1cccc(C(F)(F)F)c1)C(C)(C)C)C(=O)NS(=O)(=O)N(C)C [Compound 297] | < 100 nM | < 100 nM
C=C[C@@H]1C[C@]1(NC(=O)[C@@H]1C[C@@H](Oc2cc(-c3nc(C(C)C)cs3)nc3c(C)c(OC)ccc23)CN1C(=O)[C@@H](Nc1cc(F)cc(C(F)(F)F)c1)C(C)(C)C)C(=O)NS(=O)(=O)C1(C)CC1 [Compound 334] | < 100 nM | < 100 nM
CC[C@@H]1C[C@]1(NC(=O)[C@@H]1C[C@@H](Oc2cc(-c3nc(C(C)C)cs3)nc3c(C)c(OC)ccc23)CN1C(=O)[C@@H](Nc1ccc(F)c(C(F)(F)F)c1)C(C)(C)C)C(=O)NS(=O)(=O)C1CC1 [Compound 308] | < 100 nM | < 100 nM
CCOC(=O)c1cccc(N[C@H](C(=O)N2C[C@H](OC(=O)N3Cc4cccc(F)c4C3)C[C@H]2C(=O)N[C@]2(C(=O)NS(=O)(=O)C3CC3)C[C@H]2CC)C(C)(C)C)c1 [Compound 4] | 100 to 1000 nM | < 100 nM
CC[C@@H]1C[C@]1(NC(=O)[C@@H]1C[C@@H](OC(=O)N2Cc3cccc(Cl)c3C2)CN1C(=O)[C@@H](Nc1cccc(C(F)(F)F)c1)C(C)(C)C)C(=O)NS(=O)(=O)C1(C)CC1 [Compound 282] | < 100 nM | < 100 nM
